Patent publication US8609674B2, “Potassium channel modulators” (AbbVie Inc., priority 2010, dated 2013)
pEC50: −log10 of the molar value.

What was measured:
Assay type in all cases: cell-based
[1] = biological target: T1, human KCNQ4 (Homo sapiens, UniProt P56696); assay: KCNQ4 thallium influx FLIPR TETRA assay; details: for pEC50: HEK293 cells stably expressing human KCNQ4, Tl+ influx; for Emax: maximum response relative to 10 μM retigabine (=100%), read-out: KCNQ4 Max. %
T1 construct: expressed in transfected cells; host or cells: HEK293
Method: (§1) The following example describes the assay that may be used to identify compounds that activate KCNQ4 or KCNQ5 channels.
(§2) The assays were performed using a FLIPR^TETRA (Molecular Devices, Sunnyvale, Calif.) in 384-well format. HEK293 cells stably expressing human KCNQ4 or KCNQ5 were seeded in 384-well, black-walled, clear-bottomed, poly-D-lysine coated plates (Greiner Bio-One, Germany) at a density of 1.5×10^4 cells per well, 24 hours before the assay. On the assay day, BTC-AM dye was loaded into the cells by replacing the cell culture medium with 30 μL/well of 2.8 μM dye in DPBS. Dye loading was allowed to proceed for 2 hours at room temperature and then cells were washed once in 30 μL/well of assay buffer (in mM: 10 HEPES pH 7.3, 5 glucose, 140 Na-gluconate, 2.5 K-gluconate, 3.6 Ca-gluconate, 2 MgSO4, 0.1 Ouabain) to remove unloaded dye. Cells were incubated in 30 μL of assay buffer before loading onto a FLIPR^TETRA system. Compounds to be assayed were added to the cells as 4× of final concentration in 15 μL of assay buffer and incubated for 4 minutes at room temperature. The influx signal was initiated by adding 15 μL of assay buffer containing 4.2 mM TlNO3 and 7 mM K2SO4. Tl^+ influx signals were recorded for 3 minutes. Tl^+ influx signal was quantified as light unit changes after Tl^+ addition using the “SUM” statistic from the FLIPR^TETRA software. Sums of the responses over basal responses were plotted versus concentrations of test compounds to obtain an EC50 value and the points fit with a nonlinear regression curve using GraphPad Prism software (GraphPad Software Inc., San Diego, Calif.). EC50 values were calculated from the resulting sigmoidal dose-response curves. The maximum response for each test compound was determined relative to the response produced by 10 μM retigabine. The maximum response of retigabine at 10 μM was set at 100%.

[2] = biological target: T2, human KCNQ5 (Homo sapiens, UniProt Q9NR82); assay: KCNQ5 thallium influx FLIPR TETRA assay; details: for pEC50: HEK293 cells stably expressing human KCNQ5, Tl+ influx; for Emax: maximum response relative to 10 μM retigabine (=100%), read-out: KCNQ5 Max. %
T2 construct: expressed in transfected cells; host or cells: HEK293
Method: as §1, §2

[3] = biological target: T3, human KCNQ2 and KCNQ3 subunits (KCNQ2/3 channels) (Homo sapiens, UniProt O43525+O43526); assay: KCNQ2/3 thallium influx FLIPR assay (BTC-AM dye); details: for pEC50: HEK293 cells stably expressing human KCNQ2 and KCNQ3, Tl+ influx; for Emax: maximum response relative to 10 μM retigabine (=100%), read-out: KCNQ2/3 Max. %
T3 construct: expressed in transfected cells; host or cells: HEK293
Method: The following example describes the assay that may be used to identify compounds that activate KCNQ2/3 channels.
HEK293 cells stably expressing human KCNQ2 and KCNQ3 subunits were seeded in 96-well, black-walled, clear-bottomed, poly-D-lysine coated plates (BD Biosciences, Bedford, Mass.) at a density of 1×10^5 cells per well 24 hours before the assay. On the assay day, BTC-AM dye (Invitrogen, Carlsbad, Calif.) was loaded into the cells by replacing the cell culture medium with 55 μL/well of 3 μg/ml dye in Dulbecco's Phosphate Buffered Saline (DPBS) (Invitrogen). Dye loading was allowed to proceed for 2 hours at room temperature and then cells were washed twice with 50 μL/well of assay buffer (in mM: 10 HEPES pH 7.3, 5 glucose, 140 Na-gluconate, 2.5 K-gluconate, 3.6 Ca-gluconate, 2 MgSO4, 0.1 Ouabain) to remove unloaded dye. Cells were incubated in 50 μL of assay buffer before loading onto a FLIPR system (Molecular Devices, Sunnyvale, Calif.). Various concentrations of compounds to be assayed were added to the cells in 50 μL of assay buffer and incubated for 4 minutes. The fluorescence signal was initiated by adding 100 μL of assay buffer containing 6 mM TlNO3 and 10 mM K2SO4. Fluors were excited using the 488-nm line of an argon laser and emission was filtered using a 540±30 nm bandpass filter. Fluorescent signals were recorded for 3 minutes. Sums of the responses over basal responses were plotted versus concentrations of test compounds to obtain an EC50 value and the points fit with a nonlinear regression curve using GraphPad Prism software (GraphPad Software Inc., San Diego, Calif.). EC50 values were calculated from the resulting sigmoidal dose-response curves. The maximum response for each test compound was determined relative to the response produced by 10 μM retigabine. The maximum response of retigabine at 10 μM was set at 100%.

pEC50 [1]	Emax [1] [%]	pEC50 [2]	Emax [2] [%]	pEC50 [3]	Emax [3] [%]	SMILES
< 4.52	4	< 4.52	19	< 4.52	8	CC(C)c1nc2ccc(Cl)cc2c(=O)n1NC(=O)C[C@@H]1CC[C@H]2C[C@@H]1C2(C)C [Example 18, N-[6-chloro-4-oxo-2-(propan-2-yl)quinazolin-3(4H)-yl]-2-[(1S,2S,5S)-6,6-dimethylbicyclo[3.1.1]hept-2-yl]acetamide]
< 4.52	122	< 4.52	335	5.00 to 6.00	121	CC(C)c1nc2ccccc2c(=O)n1NC(=O)COCC[C@@H]1CC[C@H]2C[C@@H]1C2(C)C [Example 10, 2-{2-[(1S,2S,5S)-6,6-dimethylbicyclo[3.1.1]hept-2-yl]ethoxy}-N-[4-oxo-2-(propan-2-yl)quinazolin-3(4H)-yl]acetamide]
< 4.52	3	< 4.52	14	5.00 to 6.00	97	Cc1nc2ccccc2c(=O)n1NC(=O)C[C@@H]1CC[C@H]2C[C@@H]1C2(C)C [Example 17, 2-[(1S,2S,5S)-6,6-dimethylbicyclo[3.1.1]hept-2-yl]-N-(2-methyl-4-oxoquinazolin-3(4H)-yl)acetamide]
< 4.52	-23	< 4.52	15	6.30 to 7.00	93	CC(C)c1nc2ccccc2c(=O)n1NC(=O)C[C@@H]1C[C@@H]2C[C@H](C1)C2(C)C [Example 25, 2-[(1R,3s,5S)-6,6-dimethylbicyclo[3.1.1]hept-3-yl]-N-[4-oxo-2-(propan-2-yl)quinazolin-3(4H)-yl]acetamide]
< 4.52	27	< 4.52	-10	> 7.00	105	CC1(C)[C@H]2CC[C@@H](CC(=O)Nn3c(CC(F)(F)F)nc4ccccc4c3=O)[C@@H]1C2 [Example 14, 2-[(1S,2S,5S)-6,6-dimethylbicyclo[3.1.1]hept-2-yl]-N-[4-oxo-2-(2,2,2-trifluoroethyl)quinazolin-3(4H)-yl]acetamide]
< 4.52	-43	< 4.52	88	> 7.00	25	CC(C)c1nc2ccccc2c(=O)n1NC(=O)C[C@@H]1[C@H](F)C[C@H]2C[C@@H]1C2(C)C [Example 24, 2-[(1S,2S,3R,5R)-3-fluoro-6,6-dimethylbicyclo[3.1.1]hept-2-yl]-N-[4-oxo-2-(propan-2-yl)quinazolin-3(4H)-yl]acetamide]
< 4.52	41	< 4.52	136	6.30 to 7.00	149	CC(C)c1nc2ccccc2c(=O)n1NC(=O)CSC[C@@H]1CC[C@H]2C[C@@H]1C2(C)C [Example 12, 2-({[(1S,2R,5S)-6,6-dimethylbicyclo[3.1.1]hept-2-yl]methyl}sulfanyl)-N-[4-oxo-2-(propan-2-yl)quinazolin-3(4H)-yl]acetamide]
5.00 to 6.00	293	< 4.52	714	6.30 to 7.00	123	CC(C)c1nc2ccccc2c(=O)n1NC(=O)CCSC[C@@H]1CC[C@H]2C[C@@H]1C2(C)C [Example 11, 3-({[(1S,2R,5S)-6,6-dimethylbicyclo[3.1.1]hept-2-yl]methyl}sulfanyl)-N-[4-oxo-2-(propan-2-yl)quinazolin-3(4H)-yl]propanamide]
< 4.52	6	< 4.52	52	6.30 to 7.00	58	CC1(C)[C@H]2CC[C@@H](CC(=O)Nn3c(C(F)(F)F)nc4ccccc4c3=O)[C@@H]1C2 [Example 7, 2-[(1S,2S,5S)-6,6-dimethylbicyclo[3.1.1]hept-2-yl]-N-[4-oxo-2-(trifluoromethyl)quinazolin-3(4H)-yl]acetamide]
6.30 to 7.00	229	6.30 to 7.00	633	6.30 to 7.00	155	CC(C)c1nc2ccccc2c(=O)n1NC(=O)C[C@H]1C[C@H]2C[C@@H](C1F)C2(C)C (stereo partly drawn) [Example 23, 2-[(1R,3R,5S)-2-fluoro-6,6-dimethylbicyclo[3.1.1]hept-3-yl]-N-[4-oxo-2-(propan-2-yl)quinazolin-3(4H)-yl]acetamide]
< 4.52	1	< 4.52	12	< 4.52	3	CC1(C)[C@H]2CC[C@@H](CC(=O)Nn3c(C4CC4)nc4cc(C(F)(F)F)ccc4c3=O)[C@@H]1C2 [Example 4, N-[2-cyclopropyl-4-oxo-7-(trifluoromethyl)quinazolin-3(4H)-yl]-2-[(1S,2S,5S)-6,6-dimethylbicyclo[3.1.1]hept-2-yl]acetamide]
< 4.52	23	< 4.52	49	6.30 to 7.00	49	CC(SC[C@@H]1CC[C@H]2C[C@@H]1C2(C)C)C(=O)Nn1c(C(C)C)nc2ccccc2c1=O (stereo partly drawn) [Example 9, 2-({[(1S,2R,5S)-6,6-dimethylbicyclo[3.1.1]hept-2-yl]methyl}sulfanyl)-N-[4-oxo-2-(propan-2-yl)quinazolin-3(4H)-yl]propanamide]
< 4.52	8	< 4.52	21	> 7.00	73	CC(C)c1nc2ccc(F)cc2c(=O)n1NC(=O)C[C@@H]1CC[C@H]2C[C@@H]1C2(C)C [Example 13, 2-[(1S,2S,5S)-6,6-dimethylbicyclo[3.1.1]hept-2-yl]-N-[6-fluoro-4-oxo-2-(propan-2-yl)quinazolin-3(4H)-yl]acetamide]
< 4.52	5	< 4.52	9	5.00 to 6.00	99	CCc1nc2sccc2c(=O)n1NC(=O)C[C@@H]1CC[C@H]2C[C@@H]1C2(C)C [Example 6, 2-[(1S,2S,5S)-6,6-dimethylbicyclo[3.1.1]hept-2-yl]-N-(2-ethyl-4-oxothieno[2,3-d]pyrimidin-3(4H)-yl)acetamide]
< 4.52	-2	< 4.52	36	> 7.00	99	CC1(C)[C@H]2CC[C@@H](CC(=O)Nn3c(C4CC4)nc4cc(F)ccc4c3=O)[C@@H]1C2 [Example 3, N-(2-cyclopropyl-7-fluoro-4-oxoquinazolin-3(4H)-yl)-2-[(1S,2S,5S)-6,6-dimethylbicyclo[3.1.1]hept-2-yl]acetamide]
< 4.52	8	< 4.52	5	6.30 to 7.00	28	CCN(CC)c1nc2ccccc2c(=O)n1NC(=O)C[C@@H]1CC[C@H]2C[C@@H]1C2(C)C [Example 19, N-[2-(diethylamino)-4-oxoquinazolin-3(4H)-yl]-2-[(1S,2S,5S)-6,6-dimethylbicyclo[3.1.1]hept-2-yl]acetamide]
